This note sets out measurements from patent US5157032A, “Mixed ligand complexes and uses thereof as binding agents and probes to DNA” (The Trustees of Columbia University In The City of New York, priority 1990, dated 1992).

Series [1] deals with calf thymus DNA. The series can be described thus: Equilibrium dialysis of racemic complexes against calf thymus DNA (Scatchard, dialysate CD). Type of series: binding. The following applies: for Site size: fit to McGhee and von Hippel equation; for binding affinity for DNA: comparative. More on the design: Km × 10) equilibrium dialysis (intrinsic binding constant Kb): scale not given here. As to the method:
Equilibrium Dialysis: Equlibrium dialysis of the reacemic metal complexes was perforemd against calf-thymus DNA using procedures described previously. (74) The buffer used was 5 mM Tris, 50 mM NaCl at pH 7.5. Samples were agitated on a shaker bath during equilibration which occurred after three to five days, as determined by control samples containing no DNA. After equilibration, volumes of liquid inside and outside the dialysis bags were determined (approximately 1 and 3 mls, respectively) and circular dichroism of the dialysate was meaxured on a Jasco J-40 spectropolarimeter. Final ruthenium concentration inside and outside the bags were measured by visible absorbance. Data anaylsis was performed on a VAX-780 using non-linear least squares analysis.
Equilibrium Dialysis: Equilibrium binding constants for the metal complexes with DNA may be determined classically by equilibrium dialysis. Calf thymus DNA was dialyzed against the series of mixed ligand complexes using a broad range of ruthenium concentrations. […] The results have been plotted according to Scatchard (88), where r is the ratio of bound metal to DNA-phosphate concentration, and cf is the concentration of free metal complex. The data were fit by non-linear least squares analysis to the McGhee and von Hippel equation (8945) governing random non-cooperative binding to a lattice,
where r is the ratio of bound concentration of ruthenium to the concentration of DNA-phosphate, cf is the concentration of ruthenium free in soltuion, Kb the intrinsic binding constant, and the integer /, which measures the degree of anti-cooperativeity, is the size of a binding site in base pairs. The curves shown reflect the best fit after variation of two parameters: the intrinsic binding constant, Kb, and binding stie size, /. For those complexes were cooperatively was observed, the equation (89) incorporating a cooperativity parameter was used.
Equilibrium dialysis experiments additionally offer the opportunity to examine any enantiomeric selectivities associated with binding. After dialysis of the DNA against the racemic mixture, optical activity observed in the dialysate refelects an enrichment in the dialysate in the less favored enantiomer. For most of the complexes, optical activity was found in the dialysate. Values for the extent of enantiomeric selectivity could not be quanitated in the absence of determinations of DE and assignments of absolute configuration. Assuming that the signs of the circular chroism in the ultraviolet ligand bands are the same for the these ligands as that for the parent phenanthroline complex, (90) we have assigned the absolute configuration of these complexes by comparison to spectra for enantiomers of Ru(phen)3^2+ and have compared levels of enantioselectivity qualitatively through measurements of circular dichroic intensity per rutheium bound. Based upon these assumptions, we find enantionmeric selectivities for the polyridyl complexes to reflect an enrichment in the isomer in the dialysate and the preferential binding of the isomer to the right-handed DNA. This observation is consistent with the preferential intercalation of isomers found earlier for Ru(phen)3^2+ in right-handed B-DNA. (63) We may also compare relative enantioselectivities for different ancillary ligands. […] The same comparison may be seen qualitatively between Ru(phen)2 DIP^2+ and Ru(bpy)2 DIP^2+.

In series [2] the test system is calf thymus DNA. The series can be described thus: Absorption titration with calf thymus DNA (half-reciprocal, hypochromism). The following applies: in words. Type of series: binding. From the text:
In plots of [DNA]/(εA -εF) versus [DNA], Kb is given by the ratio of the slope to intercept.

The subject of series [3] is pBR322 DNA. The series can be described thus: Unwinding of supercoiled pBR322 DNA (topoisomerase I assay). The following applies: for EC50: read-out: Unwinding concentration, needed to unwind 11 of 22 supercoils, [DNA] 47 μM for phi complexes, 31.5 μM others, 60 min.
Series [4] deals with HIV. Type of series: cell-based. On the procedure:
The procedure used For testing agents active against (HIV) is designed to detect agents acting at any stage of the virus reproductive cycle. The assay basically involves the killing of T4 lympnocytes by HIV. Small amounts of HIV are added to cells, and at least two complete cycles of virus reproduction are necessary to obtain the required cell killing. […] The system is automated in several ceatures to accomodate large numbers of candidate agents, and is generally designed to detect anti-HIV activity. […]. Also, while every attempt has been made to reduce variability, precise values for EC50, IC50, and Therapeautic Index are not possible. All tests are compared with a positive (AZT-treated) control done at the same time under identical conditions.
(§1) 1. […] lymphocytes (CEM cell line) are exposed to HIV at a virus to cell ratio approximately 0.05, and plated along with noninfected control cells in 96-well microtiter plates.
(§2) 2. Candidate agent is dissolved in dimethyl sulfoxide (unless otherwose instructed), then diluted 1:200 in cell culture medium. Further dilutions (half-log10) are prepared before adding to an equal volume of medium containing either infected or noninfected cells.
(§3) 3. Cultures are incubated at 37° in a 5% carbon dioxide atmosphere for 6 or 7 days.
(§4) 4. The tetrazolium salt, XTT, is added to all wells, and cultures are incubated to allow formazan color development by viable cells.
(§5) 5. Individual wells are analyzed spectrophotometrically to quantitate formazan production, and in addition are viewed microscopically for detection of viable cells and confirmation of protective activity.
(§6) 6. Drug-treated virus-infected cells are compared with drug-treated noninfected cells and with other appropirate controls (untreated infected and untreated noninfected cells, drug-containing wells without cells, etc.) on the same plate.
7. Data are reviewed in comparison with other tests done at the same time, and a determinatin about activity is made.
Several complexes were tested for use as agents active against (HIV). […]
(§7) The Graphic Results Summary Section: FIGS. 23-33 display a plot of Log 10 of the sample's concentration (as μg/mL or molar) against the measured test values expressed as a percentage of uninfected, untreated control values. The solid line connecting the diamond symbols depicts the percentage of surviving HIV-infected cells treated with your sample (at the indicated onccentration) relative to uninfected, untreated cotrols. This line expressed the in-vitro anti-HIV activity of your sample. The dashed line connecting the square symbols depicts the percentage of surviving uninfected cells treated with your sample relative to the same uninfected, untreated controls. This line expresses the in-vitro growth inhibitory properties of your sample. The viral cytophathic effect in this particular experiment is indicated by a dotted reference line. […] Values of this parameter less than 50% are considered acceptable in the current protocol. Reference lines at 0% and 50% are depicted as alternating dots and dashes.

Series [5] deals with CEM cell line (T4 lymphocytes). The series can be described thus: Growth inhibition of uninfected CEM cells in the anti-HIV screen (XTT). Type of series: cell-based. As to the method: as §1, §2, §3, §4, §5, §6, §7
On the technique in general: Formazan colour is commonly taken as a measure of viable cells.

The mark [6] stands for this setting: Table 12, dose 1 of 8, printed 9.14 × 10- μg/ml.
Setting [7] is: Table 12, dose 2 of 8, printed 1.82 × 10+ μg/ml.
[8] abbreviates: Table 12, dose 3 of 8, printed 3.65 × 10+ μg/ml.
[9] abbreviates: Table 12, dose 4 of 8, printed 7.31 × 10+ μg/ml.
[10] abbreviates: Table 12, dose 5 of 8, printed 1.46 × 10+ μg/ml.
[11] abbreviates: Table 12, dose 6 of 8, printed 2.92 × 10+ μg/ml.
Where [12] appears, read: Table 12, dose 7 of 8, printed 5.85 × 10+ μg/ml.
The mark [13] stands for this setting: Table 12, dose 8 of 8, printed 1.17 × 10+ μg/ml.

Values joined by “and” are separate entries in the source; they are usually repeats but may differ in a detail not shown here. Identical values can stand only once. “Also recorded” adds a separate entry of the source. Like-named read-outs stand apart in the source and are kept apart here.

As to `N=C1C(=N)c2ccccc2-c2ccccc21.[Ru+2].c1ccc(-c2ccccn2)nc1.c1ccc(-c2ccccn2)nc1` [Ru(bpy)2 (phi)^2+], the “Km × 10) equilibrium dialysis (intrinsic binding constant Kb)” value in series [1] (5 mM Tris, 50 mM NaCl, pH 7.5, standard deviation in parentheses) is on record as 160.(17) × 10. The Site size in series [1] is on record as 4 base pairs. Also, the “hypochromism / absorption change on DNA addition” value in series [2] is “greatest change in absorption”. Besides, in series [3] (per molecule of bound complex), the “Unwinding Angle” value came to 17 degrees. The EC50 in series [3] amounted to 1.1 µM.
With `N=C1C(=N)c2ccccc2-c2ccccc21.N=C1C(=N)c2ccccc2-c2ccccc21.[Ru+2].c1ccc(-c2ccccn2)nc1` [Ru(phi)2 (bpy)^2+], in series [1], the Site size result was “cooperative”. Also, in series [1] (in words), the aggregation in solution entry was “tend to agfregate in solution” and the “binding curve type (cooperativity)” value is given as “cooperatiove binding”. Moreover, in series [1] (in words, listed as Ru(phi) 2 bpy^2+), the “binding affinity for DNA” value was “in the range of those for Ru(phen)2phi^2+”. Also, the “binding affinity for DNA” value in series [1] (in words, listed as Ru(phi)2 bpy^2+) was “decreased affinity for DNA relative to Ru(bpy)2 ph^2+”. For the same molecule, the “hypochromism / absorption change on DNA addition” value in series [2] is given as “greatest change in absorption”. Also, the “unwinding of the helix” value in series [3] (in words) was “lower concentration”. Further, in series [3], the EC50 came to 0.6 µM.
For `[Rh+3].c1ccc(-c2ccnc3c2ccc2c(-c4ccccc4)ccnc23)cc1.c1ccc(-c2ccnc3c2ccc2c(-c4ccccc4)ccnc23)cc1.c1ccc(-c2ccnc3c2ccc2c(-c4ccccc4)ccnc23)cc1` [Rh(DIP)3], the “Infected Culture Response(%)” value in series [4] (setting [6]) is reported as 12.4%; in series [4] (setting [7]) it was 18.5%; in series [4] (setting [8]) it was 64.7%; in series [4] (setting [9]), 45.4%; in series [4] (setting [10]), “-.3%”; in series [4] (setting [11]) it was “-.9%”. Besides, the “Infected Culture Response(%)” value in series [4] (setting [12]) is recorded as -1.8%; in series [4] (setting [13]), -1.8%; in series [4] (Tables 6-11, dose 3 of 8, 1.17 × 10- [sic] μg/ml) it was 8.0%. Further, the “activity in inhibiting the activity of HIV” value in series [4] (in words) is listed as “moderately active”. Moreover, the “Uninfected Culture Response(%)” value is reported as 92.9% in series [5] (setting [6]); 91.8% in series [5] (setting [7]); 82.4% in series [5] (setting [8]); 55.2% in series [5] (setting [9]); “-.9%” in series [5] (setting [10]); -1.6% in series [5] (setting [11]). For the same molecule, the “Uninfected Culture Response(%)” value in series [5] (setting [12]) is “-.7%”; in series [5] (setting [13]), -1.5%; in series [5] (Tables 2-5, dose 1 of 8, 1.25 × 10- [sic] μg/ml) it was 110.1% and 100.3% and 133.6% and 105.1%; in series [5] (Tables 2-5, dose 2 of 8, 1.25 × 10- [sic] μg/ml) it was 113.1% and 98.9% and 131.0% and 82.1%; in series [5] (Tables 2-5, dose 3 of 8, 1.25 × 10- [sic] μg/ml), 106.0% and 89.3% and 108.6% and 65.1%; in series [5] (Tables 2-5, dose 8 of 8, 1.25 × 10+ [sic] μg/ml), -6% and -1.6% and -6.8% and -2.1%. The “Uninfected Culture Response(%)” value was 101.9% and 100.5% and 96.6% and 96.5% and 100.2% and 101.1% in series [5] (Tables 6-11, dose 1 of 8); 94.1% and 96.9% and 97.4% and 80.8% and 102.4% and 95.3% in series [5] (Tables 6-11, dose 2 of 8); 96.8% and 102.2% and 101.8% and 86.9% and 115.3% and 110.6% in series [5] (Tables 6-11, dose 3 of 8); 95.5% and 100.6% and 98.1% and 98.3% and 121.1% and 108.9% in series [5] (Tables 6-11, dose 4 of 8); 97.9% and 104.2% and 101.3% and 88.4% and 113.8% and 93.7% in series [5] (Tables 6-11, dose 5 of 8).
Take `O=[N+]([O-])c1cc2cccnc2c2ncccc12.O=[N+]([O-])c1cc2cccnc2c2ncccc12.O=[N+]([O-])c1cc2cccnc2c2ncccc12.[Ru+2]` [Ru(5-NO2phen)3^2+, [Ru(5-nitrophenanthroline)3)]Cl2]: in series [1], the Site size was 8-12 base pairs. In addition, the “binding affinity for DNA” value in series [1] (in words) is reported as “bind only poorly to DNA; also recorded: much lower than would be expected based upon their solvent accessible surfaces”. Moreover, the “binding to DNA” value in series [2] (absorption changes too small for Kb) is given as “bound very weakly”.
